Consider three molecules from US12686727B2, “Antibodies for binding plasmin” (MONASH UNIVERSITY, priority 2019, dated 2026).

The assay concerns whole blood clots. As to the kind of experiment: Whole blood clot lysis induced by tPA. It is filed as cell-based, human. The settings on record: for inhibition of clot lysis at high concentrations: up to 1,000 nM. How it is done:
Whole blood clots were formed from human blood collected from healthy donors. Halo-shaped clots were generated by mixing whole blood with 15% of a mixture containing recombinant tissue factor supplemented with synthetic phospholipids Dade Innovin, Siemens Germany and 67 mM CaCl2 in HBS at 1:4 ratio. The plate was sealed and incubated at 37° C. for 60 min before use.
Clot lysis was induced by the addition of tPA to 7 nM and antibodies or Plm inhibitors at the following concentrations: 0-312.5 nM B10; 0-1000 nM α2AP; 0-1000 nM aprotinin; 0-7.5 mM TXA. Clot lysis leads to an […] of turbidity and was monitored at OD610 nm using a plate reader.
The time required to achieve 50% clot lysis was used for IC50 calculation. […] B10 was more than 180-fold more efficacious than TXA (not shown).

For the molecule `NC[C@H]1CC[C@H](C(=O)O)CC1` [TXA, tranexamic acid, reference compound], the “concentration of total inhibition of clot lysis” value (7 nM tPA, data not shown) was at least 300 µM. Also, the “effect on clot lysis” value (concentration up to 100 μM) is recorded as “delayed clot lysis”.
For Aprotinin [reference compound], the “inhibition of clot lysis at high concentrations” value is “only partially inhibit clot lysis”.

B1: alpha-2-antiplasmin (protein)
chain: NQEQVSPLTLLKLGNQEPGGQTALKSPPGVCSRDPTPEQTHRLARAMMAFTADLFSLVAQTSTCPNLILSPLSVALALSHLALGAQNHTLQRLQQVLHAGSGPCLPHLLSRLCQDLGPGAFRLAARMYLQKGFPIKEDFLEQSEQLFGAKPVSLTGKQEDDLANINQWVKEATEGKIQEFLSGLPEDTVLLLLNAIHFQGFWRNKFDPSLTQRDSFHLDEQFTVPVEMMQARTYPLRWFLLEQPEIQVAHFPFKNNMSFVVLVPTHFEWNVSQVLANLSWDTLHPPLVWERPTKVRLPKLYLKHQMDLVATLSQLGLQELFQAPDLRGISEQSLVVSGVQHQSTLELSEVGVEAAAATSIAMSRMSLSSFSVNRPFLFFIFEDTTGLPLFVGSVRNPNPSAPRELKEQQDSPGNKDFLQSLKGFPRGDKLFGPDLKLVPPMEEDYPQFGSPK
Turning to B1, the “inhibition of clot lysis at high concentrations” value is “only partially inhibit clot lysis”.
